Experimental data published in PMC8881610 (Nature Communications, 2022).
Residue numbers refer to the chain shown, from its start.

Tests used:
Experiment in all cases: cAMP accumulation assay (LANCE Ultra cAMP kit), GIPR WT, mutant or modified constructs
Assay type in all cases: cell-based
Parameters in all cases: acylated tirzepatide to the full-length or modified; Flag; expressed in transfected cells; host or cells: HEK293T
GIPR [1] = target: T1, GIPR (Homo sapiens, UniProt P48546, Q285A); settings: GIPR Q285A, HEK293T
T1 sequence (P48546 22-466 Q285A): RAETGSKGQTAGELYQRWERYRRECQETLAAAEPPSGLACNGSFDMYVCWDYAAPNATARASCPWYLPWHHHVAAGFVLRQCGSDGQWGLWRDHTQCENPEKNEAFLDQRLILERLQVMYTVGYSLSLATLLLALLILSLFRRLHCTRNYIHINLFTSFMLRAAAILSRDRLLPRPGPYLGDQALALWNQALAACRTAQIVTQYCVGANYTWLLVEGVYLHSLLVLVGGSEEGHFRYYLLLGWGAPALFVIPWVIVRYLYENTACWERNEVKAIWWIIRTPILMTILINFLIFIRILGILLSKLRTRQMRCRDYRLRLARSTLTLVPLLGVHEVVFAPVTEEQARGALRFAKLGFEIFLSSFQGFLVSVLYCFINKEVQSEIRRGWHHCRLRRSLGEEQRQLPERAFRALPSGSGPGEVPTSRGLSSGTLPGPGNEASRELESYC
In short: (§1)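 HEK293T cells transiently transfected with human GIPR WT or mutant constructs (pcDNA3.1), used after 24 h. The cells were stimulated with peptide agonists for 40 min at RT in HBSS with 5 mM HEPES, 0.1% BSA or casein, and 0.5 mM IBMX. cAMP was read by LANCE Ultra TR-FRET (Eu-cAMP tracer/ULight anti-cAMP, 1 h RT, 620/650 nm).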

GIPR [2] = target: T2, GIPR (Homo sapiens, UniProt P48546, W90A); settings: HEK-293T, GIPR W90A; HEK293T
T2 sequence (P48546 22-466 W90A): T1 sequence (P48546 22-466 Q285A) with W69A, A264Q
In short: as §1

GIPR [3] = target: T3, GIPR (Homo sapiens, UniProt P48546, D191A/Q138A/R196A); settings: GIPR Q138A/D191A/R196A, HEK293T
T3 sequence (P48546 22-466 Q138A/D191A/R196A): T1 sequence (P48546 22-466 Q285A) with Q117A, D170A, R175A, A264Q
In short: as §1

[4] = read-out: cAMP pEC50 (converted)

CCCCCCCCCCCCCCCC(=O)N[C@@H](CCC(=O)NCCCC[C@H](NC(=O)[C@H](CC(=O)O)NC(=O)[C@H](CO)NC(=O)[C@@H](NC(=O)[C@H](Cc1ccccc1)NC(=O)[C@@H](NC(=O)CNC(=O)[C@H](CCC(N)=O)NC(=O)C(C)(C)NC(=O)[C@@H](N)Cc1c[nH]cn1)[C@@H](C)O)[C@@H](C)O)C(=O)N[C@@H](CO)C(=O)N[C@@H](CCCCN)C(=O)N[C@@H](Cc1ccc(O)cc1)C(=O)N[C@@H](CC(C)C)C(=O)N[C@@H](CC(=O)O)C(=O)N[C@@H](CCC(=O)O)C(=O)N[C@@H](CCCNC(=N)N)C(=O)N[C@@H](C)C(=O)N[C@@H](C)C(=O)N[C@@H](CCC(N)=O)C(=O)N[C@@H](CC(=O)O)C(=O)N[C@@H](Cc1ccccc1)C(=O)N[C@H](C(=O)N[C@@H](CCC(N)=O)C(=O)N[C@@H](Cc1c[nH]c2ccccc12)C(=O)N[C@@H](CC(C)C)C(=O)N[C@@H](CC(C)C)C(=O)N[C@@H](CC(=O)O)C(=O)NCC(=O)NCC(=O)N1CCC[C@H]1C(=O)N[C@@H](CO)C(=O)N[C@@H](CO)C(=O)NCC(=O)N[C@@H](C)C(=O)N1CCC[C@H]1C(=O)N1CCC[C@H]1C(=O)N1CCC[C@H]1C(=O)N[C@@H](CO)C(N)=O)C(C)C)C(=O)O [Peptide 20]
EC50 (GIPR [1]; [4]): 0.0417 nM
Emax (GIPR [1]; HEK-293T): 97.6 ± 1.37%
Emax (GIPR [2]): 98 ± 4.59%
EC50 (GIPR [3]; [4]): 30.2 nM
Emax (GIPR [3]; HEK-293T): 56.3 ± 12.2%
